Measurements published in US8134015B2, “Compound inhibiting in vivo phosphorous transport and medicine containing the same” (Kyowa Hakko Kirin Co., Ltd., priority 2003, dated 2012).

Target: T1, rat NaPi-2b (Rattus norvegicus, UniProt Q9JJ09)
T1 construct: expressed in transfected cells; host or cells: Xenopus oocytes injected with cRNA
T1 sequence (Q9JJ09 1-695): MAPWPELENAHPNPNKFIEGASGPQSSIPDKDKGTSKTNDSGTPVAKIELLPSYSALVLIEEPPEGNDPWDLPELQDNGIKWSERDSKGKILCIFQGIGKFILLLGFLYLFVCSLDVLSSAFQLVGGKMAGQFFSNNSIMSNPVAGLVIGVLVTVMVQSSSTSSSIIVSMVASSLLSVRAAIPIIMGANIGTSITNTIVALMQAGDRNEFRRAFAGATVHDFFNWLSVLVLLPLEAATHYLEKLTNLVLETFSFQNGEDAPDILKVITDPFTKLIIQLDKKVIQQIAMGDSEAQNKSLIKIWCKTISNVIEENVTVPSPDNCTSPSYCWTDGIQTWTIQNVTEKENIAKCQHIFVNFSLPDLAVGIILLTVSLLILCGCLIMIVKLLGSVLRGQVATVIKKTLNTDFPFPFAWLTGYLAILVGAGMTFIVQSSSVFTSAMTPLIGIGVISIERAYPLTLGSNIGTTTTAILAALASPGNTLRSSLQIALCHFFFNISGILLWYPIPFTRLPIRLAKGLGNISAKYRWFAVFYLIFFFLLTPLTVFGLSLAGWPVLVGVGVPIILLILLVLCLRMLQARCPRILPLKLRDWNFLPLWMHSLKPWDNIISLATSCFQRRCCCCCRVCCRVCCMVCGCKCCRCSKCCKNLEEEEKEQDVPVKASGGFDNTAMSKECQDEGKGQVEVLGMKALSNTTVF
Test: Sodium-dependent phosphate uptake of Xenopus oocytes which expressed NaPi-2b (32P)
Format: cell-based
Settings: for inhibition at 300 µM: phosphate uptake, oocytes expressing rat NaPi-2b, determined from inhibition curve; for IC50: Xenopus oocytes expressing rat NaPi-2b, 32P radioactive phosphorus, read-out: IC50 (phosphate uptake inhibitory activity)
Method in brief: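 Rat NaPi-2b cloned from small-intestine cDNA; cRNA injected into Xenopus oocytes, expression for 2 days. Phosphate uptake inhibition measured with 32P; percent inhibition at 300 μM and 100 μM read from the same inhibition curve.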

Row | inhibition at 300 µM [%] | IC50 [µM] | SMILES
1 | 44.7 |  | Cc1cccc(/C=N/NC(=O)c2cc(Cl)ccc2NC(=O)c2cccc(CN(C)CCCCCCN(C)Cc3cccc(C(=O)Nc4ccc(Cl)cc4C(=O)N/N=C/c4cccc(C)c4)c3)c2)c1 [Compound 705, N1-[4-Chloro-2-({2-[(E)-1-(3-methylphenyl)methylidene]hydrazino}carbonyl}phenyl}-3-{[{6-[(3-{[4-chloro-2-({2-[(E)-1-(3-methylphenyl)methylidene]hydrazino}carbonyl}-anilino}carbonyl}benzyl}(methyl)amino)hexyl)(methyl)amino]methyl]-benzamide]
2 |  | 97 | O=C(Nc1ccc(Cl)cc1C(=O)N/N=C/c1cccc(F)c1)c1cccc(CSCCS(=O)(=O)O)c1 [Compound 691, 2-{3-[4-Chloro-2-(3-fluoro-benzylidene-hydrazinocarbonyl)-phenylcarbamoyl]-benzylsulfanyl}-ethanesulfonic acid]
3 | 32.2 |  | Cc1ccc(/C=N/NC(=O)c2scc(C)c2NC(=O)c2cccc(CN3CCC(O)CC3)c2)cc1C [Compound 541, N-[2-(3,4-Dimethyl-benzylidene-hydrazinocarbonyl)-4-methyl-thiophen-3-yl]-3-(4-hydroxy-piperidin-1-ylmethyl)-benzamide]
4 |  | < 3 | Cc1ccc(/C=N/NC(=O)c2cc(Br)ccc2NC(=O)c2ccc(CSc3ccncc3)cc2)cc1 [Compound 258, N-[4-Bromo-2-(4-methyl-benzylidene-hydrazinocarbonyl)-phenyl]-4-(pyridin-4-ylsulfanylmethyl)-benzamide]
5 |  | < 1 | Cc1ccc(/C=N/NC(=O)c2cc(N3CCOCC3)ccc2NC(=O)c2cccc(CSCCO)c2)cc1C [Compound 1064, N-[2-(3,4-Dimethyl-benzylidene-hydrazinocarbonyl)-4-morpholin-4-yl-phenyl]-3-(2-hydroxy-ethylsulfanylmethyl)-benzamide]
6 |  | 13.6 | O=C(N/N=C/c1cccc(F)c1)c1cc(Br)ccc1NC(=O)C1CCCCC1 [Compound 509, Cyclohexanecarboxylic acid [4-bromo-2-(3-fluoro-benzylidene-hydrazinocarbonyl)-phenyl]-amide]
7 |  | < 3 | O=C(Nc1ccc(I)cc1C(=O)N/N=C/c1ccc(F)cc1)c1cccc(CN2CCC(N3CCCCC3)CC2)c1 [Compound 483, 3-[1,4′]Bipiperidinyl-1′-ylmethyl-N-[2-(4-fluoro-benzylidene-hydrazinocarbonyl)-4-iodo-phenyl]-benzamide]
8 |  | 1.22 | COc1ccc(/C=N/NC(=O)c2cc(N3CCCC3)ccc2NC(=O)c2cccc(CSCCO)c2)cc1 [Compound 921, 3-(2-Hydroxy-ethylsulfanylmethyl)-N-[2-(4-methoxy-benzylidene-hydrazinocarbonyl)-4-pyrrolidin-1-yl-phenyl]-benzamide]
9 |  | 1.83 | CCN(CC)CCN(CCN(CC)CC)Cc1cccc(C(=O)Nc2ccc(N3CCCCC3)cc2C(=O)N/N=C/c2ccc(C)cc2)c1 [Compound 906, 3-{[Bis-(2-diethylamino-ethyl)-amino]-methyl}-N-[2-(4-methyl-benzylidene-hydrazinocarbonyl)-4-piperidin-1-yl-phenyl]-benzamide]
10 |  | 0.51 | COc1ccc(/C=N/NC(=O)c2cc(Br)ccc2NC(=O)c2ccc(OC)c(OC)c2)cc1Br [Compound 97, N-[4-Bromo-2-(3-bromo-4-methoxy-benzylidene-hydrazinocarbonyl)-phenyl]-3,4-dimethoxy-benzamide]
11 |  | < 0.3 | COc1cccc(/C=N/NC(=O)c2cc(Cl)ccc2NC(=O)c2cccc(CN(C)CCO)c2)c1 [Compound 400, N-[4-Chloro-2-(3-methoxy-benzylidene-hydrazinocarbonyl)-phenyl]-3-{[(2-hydroxy-ethyl)-methyl-amino]-methyl}-benzamide]
12 | 41.6 |  | C/C(=N\NC(=O)c1ccccc1NC(=O)c1ccncc1)c1cccc(C)c1 [Compound 249, N-[2-(1-m-Toluyl-ethylidene-hydrazinocarbonyl)-phenyl]-isonicotinamide]
13 | 67.8 |  | Cc1ccc(/C=N/NC(=O)c2cc(OCC(O)CN3CCOCC3)ccc2NC(=O)c2cccc(CN(CC(C)O)CC(C)O)c2)cc1C (centres unmarked) [Compound 953, 3-{[Bis-(2-hydroxy-propyl)-amino]-methyl}-N-[2-(3,4-dimethyl-benzylidene-hydrazinocarbonyl)-4-(2-hydroxy-3-morpholin-4-yl-propoxy)-phenyl]-benzamide]
14 |  | 3.58 | COc1ccc(/C=N/NC(=O)c2c(NC(=O)c3cccc(CN4CCC(N5CCCCC5)CC4)c3)sc3c2CCCC3)cc1 [Compound 620, 3-[1,4′]Bipiperidinyl-1′-ylmethyl-N-[3-(4-methoxy-benzylidene-hydrazinocarbonyl)-4,5,6,7-tetrahydro-benzo[b]thiophen-2-yl]-benzamide]
15 |  | 23.1 | Cc1ccc(/C=N/NC(=O)c2cc(Cl)ccc2NC(=O)c2ccncc2)cc1 [Compound 192, N-[4-Chloro-2-(4-methyl-benzylidene-hydrazinocarbonyl)-phenyl]-isonicotinamide]
16 |  | 4.32 | Cc1csc(NC(=O)c2cccc(CN(CCO)CCO)c2)c1C(=O)N/N=C/c1ccc(Cl)c(C(F)(F)F)c1 [Compound 790, 3-{[Bis-(2-hydroxy-ethyl)-amino]-methyl}-N-[3-(4-chloro-3-trifluoromethyl-benzylidene-hydrazinocarbonyl)-4-methyl-thiophen-2-yl]-benzamide]
17 |  | 17.2 | CCN(CC)CCN(C)Cc1cccc(C(=O)Nc2ccc(OCCOCCOC)cc2C(=O)N/N=C/c2ccc(C)cc2)c1 [Compound 1034, 3-{[(2-Diethylamino-ethyl)-methyl-amino]-methyl}-N-[4-[2-(2-methoxy-ethoxy)-ethoxy]-2-(4-methyl-benzylidene-hydrazinocarbonyl)-phenyl]-benzamide]
18 |  | 2.3 | COc1ccc(C(=O)Nc2ccccc2C(=O)N/N=C/c2ccc(F)cc2)cc1OC [Compound 16, N-[2-(4-Fluoro-benzylidene-hydrazinocarbonyl)-phenyl]-3,4-dimethoxy-benzamide]
19 |  | < 3 | O=C(Nc1ccc(I)cc1C(=O)N/N=C/c1cccc(F)c1)c1cccc(CN2CCC(N3CCCCC3)CC2)c1 [Compound 482, 3-[1,4′]Bipiperidinyl-1′-ylmethyl-N-[2-(3-fluoro-benzylidene-hydrazinocarbonyl)-4-iodo-phenyl]-benzamide]
20 |  | < 3 | COc1ccc(C(=O)Nc2ccc(I)cc2C(=O)N/N=C/c2cccc(C)c2)cc1OC [Compound 206, N-[4-Iodo-2-(3-methyl-benzylidene-hydrazinocarbonyl)-phenyl]-3,4-dimethoxy-benzamide]
21 |  | 1.02 | Cc1cccc(/C=N/NC(=O)c2cc(Cl)ccc2NC(=O)c2cccc(CSc3nc[nH]n3)c2)c1 [Compound 391, N-[4-Chloro-2-(3-methyl-benzylidene-hydrazinocarbonyl)-phenyl]-3-(1H-[1,2,4]triazol-3-ylsulfanylmethyl)-benzamide]
22 | 39.1 |  | COc1cccc(/C=N/NC(=O)c2cc(Br)ccc2NC(=O)c2ccc(CN3CCN(c4ccccn4)CC3)cc2)c1 [Compound 778, N-[4-Bromo-2-(3-methoxy-benzylidene-hydrazinocarbonyl)-phenyl]-4-(4-pyridin-2-yl-piperazin-1-ylmethyl)-benzamide]

Row | SMILES | inhibition at 300 µM [%] | IC50 [µM]
23 | O=C(Nc1ccccc1C(=O)N/N=C/c1ccccc1)c1ccccc1 [Compound 224, N-[2-(Benzylidene-hydrazinocarbonyl)-phenyl]-benzamide] |  | 20
